We go through one molecule from patent US20190365784A1, “USE OF BRASSINOSTEROID ANALOGS FOR THE TREATMENT OF DERMAL DISORDERS BY SELECTIVELY MODULATING LIVER X RECEPTORS (LXR) AND DERMAL DISEASE TREATMENT BY BRASSINOSTEROID ANALOGS ACTING AS SELECTIVE LIVER X RECEPTOR (LXR) MODULATORS” (CONSEJO NACIONAL DE INVESTIGACIONES CIENTÍFICAS Y TÉCNICAS …, priority 2015, published 2019).

The subject of experiment [1] is ABCA1. Nature of the experiment: ABCA1 expression in HaCaT cells (real time PCR). The format is cell-based, human. The note with it: 10 uM. How it is done:
[…] Twenty four hours after irradiation, the cells were harvested and RNA isolated to assess the expression of LXR-alpha, LXR-beta, ABCA1, TNF-alpha, IL-6, and IL-8 genes. HaCaT cells were cultured in DMEM supplemented with 10% (v/v) fetal bovine serum, penicillin (100 U/mL), streptomycin ([…]) and glutamine (2 mM). […] The expressions of ABCA1, TNF-alpha, IL-6, IL-8, LXR-alpha, and LXR-beta were normalized according to glyceraldehyde-3-phosphate dehydrogenase (GAPDH) expression. The results of three independent assays, carried out in duplicate for each condition, are reported.
Background: Quantitative PCR measures a nucleic acid by following its amplification.

The test system of experiment [2] is LXR-alpha. Nature of the experiment: LXR-alpha expression in HepG2 cells (real time PCR). The format is cell-based, human. The note with it: GW3965 1 uM, 6 h.
Method: The cells were incubated for 6 h in the presence of either Compound I (10 uM), or Compound II (10 uM), or the commercial LXR agonist GW3965 (1 uM), or Vehicle [DMSO, 0.1% (v/v)]). To obtain RNA, at the end of the incubation the cells were collected by centrifugation at 1,000 rpm for 2 min, washed with phosphate buffered saline, and lysed in 300 ul TRIZOL (Invitrogen). RNA samples were suspended in ul of RNAse free water, and their concentration determined (NanoDrop spectrophotometer). The ratio of the absorbance at 260 and 280 nm was used to assess RNA purity of an RNA preparation, with a value of 1.8-2.0 indicating pure RNA. To obtain cDNA, 1 ug of total RNA was denatured by incubating for 5 min at 70° C., before the addition of a mixture containing 0.5 ug oligo-dT primers and 25 ng/ml of random primers (Invitrogen), 1.0 mM dNTPs (Invitrogen), and 200 U M-MLV reverse transcriptase (Promega); after this the mixture was retrotranscribed at 37° C. for 60 min, followed by an incubation at 95° C. for 5 min to inactivate the enzyme. For the real time PCR amplification (Stratagene Thermal Cycler), cDNA samples were diluted 1/5 to 1/10 depending on the target amplification product. Calibration curves were obtained by use of eight successive 1:2 sample dilutions. […]
In experiment [3] the test system is fatty acid synthase (FAS). Nature of the experiment: FAS expression in HL-60 cells (real time PCR). Format: cell-based, human. The note with it: GW3965 1 uM, 6 h. On the procedure: (§1) To investigate the effects of Compounds I and II on the expression of three genes involved in lipid metabolism [fatty acid synthase (FAS); and two ATP-dependent cholesterol and phospholipid transporters, such as ABCA1 and ABCG1], human promyelocytic leukemia cells (HL-60) that endogenously express LXR-alpha and LXR-beta were incubated in the presence of either Comp I or Comp II (10 uM), or GW3965 (1 uM) for 6 h. mRNA levels for FAS, ABCA1 and ABCG1 were determined by real time PCR and results were normalized to GAPDH expression. HL-60 (10^6 cells/well) were cultured in RPMI medium supplemented with 5% (v/v) fetal bovine serum, penicillin (100 IU/mL), streptomycin (100 ug/mL) y cyprofloxacin (0.4 ug/mL). […] To obtain RNA, at the end of the incubation the cells were collected by centrifugation at 1,000 rpm for 2 min, washed with phosphate buffered saline, and lysed in 300 ul TRIZOL (Invitrogen). RNA samples were suspended in […] of RNAse free water, and their concentration determined (NanoDrop spectrophotometer). […] To obtain cDNA, 1 ug of total RNA was denatured by incubating for 5 min at 70° C., before the addition of a mixture containing 0.5 ug oligo-dT primers and 25 ng/ml of random primers (Invitrogen), 1.0 mM dNTPs (Invitrogen), and 200 U M-MLV reverse transcriptase (Promega); after this the mixture was retrotranscribed at 37° C. for 60 min, followed by an incubation at 95° C. for 5 min to inactivate the enzyme. For the real time PCR amplification (Stratagene Thermal Cycler), cDNA samples were diluted 1/5 to 1/10 depending on the target amplification product. Calibration curves were obtained by use of eight successive 1:2 sample dilutions. Amplifications were carried out in a 25 ul final volume (5 ul cDNA sample plus 20 ul of reaction mixture) in the presence of either 3, 4 or 5 mM MgCl2 (depending on the amplified sequence), 0.25 mM dNTPs (Invitrogen), 1.25 U Taq polymerase (Invitrogen), 1 μM of the specific primers according to the target amplification sequence, and 0.025 μl SYBR Green (Roche). […]

Experiment [4] concerns the target T1, LXR-alpha (Homo sapiens, UniProt Q13133).
T1 sequence (Q13133 1-447): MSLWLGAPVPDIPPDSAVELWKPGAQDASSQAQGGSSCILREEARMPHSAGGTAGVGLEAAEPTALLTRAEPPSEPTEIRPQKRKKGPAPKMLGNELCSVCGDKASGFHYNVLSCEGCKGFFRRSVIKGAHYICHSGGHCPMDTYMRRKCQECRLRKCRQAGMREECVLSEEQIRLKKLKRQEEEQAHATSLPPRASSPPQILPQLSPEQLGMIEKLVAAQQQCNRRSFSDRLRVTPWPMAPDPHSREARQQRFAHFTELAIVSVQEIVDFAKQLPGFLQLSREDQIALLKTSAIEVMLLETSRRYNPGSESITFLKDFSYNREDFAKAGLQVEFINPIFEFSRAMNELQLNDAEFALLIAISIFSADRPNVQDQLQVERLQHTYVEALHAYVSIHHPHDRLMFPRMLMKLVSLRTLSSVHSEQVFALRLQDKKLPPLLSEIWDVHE
T1 sequence (P19793 1-462 partner): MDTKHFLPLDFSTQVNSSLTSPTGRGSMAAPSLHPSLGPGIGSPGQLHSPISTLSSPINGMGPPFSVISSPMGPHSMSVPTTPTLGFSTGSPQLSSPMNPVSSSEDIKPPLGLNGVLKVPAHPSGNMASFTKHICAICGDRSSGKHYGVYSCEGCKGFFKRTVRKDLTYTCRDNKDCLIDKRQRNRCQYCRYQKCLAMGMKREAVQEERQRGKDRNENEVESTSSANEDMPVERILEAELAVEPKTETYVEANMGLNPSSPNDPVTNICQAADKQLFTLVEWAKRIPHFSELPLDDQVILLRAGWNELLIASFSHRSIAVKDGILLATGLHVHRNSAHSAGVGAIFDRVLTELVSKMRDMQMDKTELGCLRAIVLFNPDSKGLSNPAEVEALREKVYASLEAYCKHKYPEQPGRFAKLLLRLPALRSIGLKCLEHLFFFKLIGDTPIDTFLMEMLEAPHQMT
Nature of the experiment: LXR-alpha/RXR LRE-luciferase reporter in transfected HEK293T cells. Format: cell-based. The note with it: GW3965 1 uM, 18 h. The text has this: Since we had previously shown that the beneficial effects of the compounds of the invention are independent of glucocorticoid receptor (GR) activation, we set forth to investigate if they might exert their actions through activation of liver X receptors (LXR). For this purpose we used cultured cells transiently transfected with LXR-alpha, the retinoid X receptor (RXR) and a LXR response element-luciferase reporter (LRE-LUC). A. Human embryonic kidney cells (HEK293T; 5×10^5 cells/well) were cultured in DMEM medium supplemented with 10% (v/v) fetal bovine serum, 100 ug/ml of streptomycin, 100 IU/ml of penicillin and 2 mM glutamine. For the transient transfections, the cell cultures were added with plasmids carrying LXR-alpha (pLXR-alpha; 0.6 ug), the retinoid X receptor (pRXR; 0.2 ug), a LXR response element-luciferase reporter (pRE-LUC; 0.7 ug) and beta-galactosidase gene (pRSV-LacZ; 0.6 ug) as a transfection control, using Lipofectamine 2000 (Invitrogen). […] Compounds III to VI are […] analogs bearing a fluorine atom at C-6. To assess LXR-alpha activation, at the end of the incubation period luciferase activity was measured by use of a luciferase assay system (Promega). The results of three independent assays, carried out in duplicate for each condition, are reported.

The subject of experiment [5] is ABCG1. The experiment in a line: ABCG1 expression in HL-60 cells (real time PCR). Format: cell-based, human. The note with it: GW3965 1 uM, 6 h. On the procedure:
as §1

For experiment [6], the system named is fatty acid synthase (FAS or FASN). Nature of the experiment: FASN expression in HepG2 cells (real time PCR). The note with it: GW3965 1 uM, 6 h. The format is cell-based, human.
Method: (§3) The cells were incubated for 6 h in the presence of either Compound I (10 uM), or Compound II (10 uM), or the commercial LXR agonist GW3965 (1 uM), or Vehicle [DMSO, 0.1% (v/v)]). To obtain RNA, at the end of the incubation the cells were collected by centrifugation at 1,000 rpm for 2 min, washed with phosphate buffered saline, and lysed in 300 ul TRIZOL (Invitrogen). RNA samples were suspended in ul of RNAse free water, and their concentration determined (NanoDrop spectrophotometer). The ratio of the absorbance at 260 and 280 nm was used to assess RNA purity of an RNA preparation, with a value of 1.8-2.0 indicating pure RNA. To obtain cDNA, 1 ug of total RNA was denatured by incubating for 5 min at 70° C., before the addition of a mixture containing 0.5 ug oligo-dT primers and 25 ng/ml of random primers (Invitrogen), 1.0 mM dNTPs (Invitrogen), and 200 U M-MLV reverse transcriptase (Promega); after this the mixture was retrotranscribed at 37° C. for 60 min, followed by an incubation at 95° C. for 5 min to inactivate the enzyme. For the real time PCR amplification (Stratagene Thermal Cycler), cDNA samples were diluted 1/5 to 1/10 depending on the target amplification product. Calibration curves were obtained by use of eight successive 1:2 sample dilutions. Amplifications were carried out in a 25 ul final volume (5 ul cDNA sample plus 20 ul of reaction mixture) in the presence of either 3, 4 or 5 mM MgCl2 (depending on the amplified sequence), 0.25 mM dNTPs (Invitrogen), 1.25 U Taq polymerase (Invitrogen), 1 μM of the specific primers according to the target amplification sequence, and 0.025 μl SYBR Green (Roche). Melting curves were used to assess the specificity of the amplification products. […]
The subject of experiment [7] is ABCG1. Nature of the experiment: ABCG1 expression in HepG2 cells (real time PCR). The format is cell-based, human. The note with it: GW3965 1 uM, 6 h.
Method: as §3
A further experiment concerns TNF-alpha. The experiment in a line: TNF-alpha expression in UV-irradiated HaCaT cells (real time PCR). The format is cell-based, human. The note with it: 10 uM. How it is done:
(§2) HaCaT cells—a human immortalized keratinocyte cell line—were exposed to 15 J/m^2 UVB (254 nm) irradiation. Twenty four hours after irradiation, the cells were harvested and RNA isolated to assess the expression of LXR-alpha, LXR-beta, ABCA1, TNF-alpha, IL-6, and IL-8 genes. HaCaT cells were cultured in DMEM supplemented with 10% (v/v) fetal bovine serum, penicillin (100 U/mL), streptomycin ([…]) and glutamine (2 mM). […] The expressions of ABCA1, TNF-alpha, IL-6, IL-8, LXR-alpha, and LXR-beta were normalized according to glyceraldehyde-3-phosphate dehydrogenase (GAPDH) expression. The results of three independent assays, carried out in duplicate for each condition, are reported.

The next experiment relates to IL-8. The experiment in a line: IL-8 expression in UV-irradiated HaCaT cells (real time PCR). The format is cell-based, human. The note with it: 10 uM, 24 h after UV, normalized to GAPDH. How it is done:
as §2

The subject of experiment [8] is LXR-alpha. Nature of the experiment: LXR-alpha expression in UV-irradiated HaCaT cells (real time PCR). The format is cell-based, human. The note with it: 10 uM, 24 h after UV, vs. DMSO (UV, 24 h) and GW3965 (UV, 24 h). How it is done: as §2
In experiment [9] the test system is ABCA1. Nature of the experiment: ABCA1 expression in HL-60 cells (real time PCR). Format: cell-based, human. The note with it: GW3965 1 uM, 6 h. On the procedure:
as §1

A further experiment relates to SRBEP-1. Nature of the experiment: SRBEP-1 expression in HepG2 cells (real time PCR). The format is cell-based, human. The note with it: GW3965 1 uM, 6 h.

Method for SRBEP-1: as §3

Take `O=C(O)Cc1cccc(OCCCN(Cc2cccc(C(F)(F)F)c2Cl)CC(c2ccccc2)c2ccccc2)c1` [GW3965, reference compound]: the “induction of ABCA1 expression versus Comp I- or Comp II-treated cells” value with ABCA1 [1] (HaCaT, 24 h after UV exposure) is reported as “stronger”; in the experiment on ABCA1 [1] (non-irradiated HaCaT), “stronger”. Besides, the “induction of LXR-alpha expression compared with DMSO treated HepG2” value in the experiment on LXR-alpha [2] is recorded as 3.5 times. Further, the “FAS expression higher than in vehicle-treated controls” value in experiment [3] came out at 1.8 times. Moreover, the “LXR-alpha driven gene expression, increase compared with vehicle-treated cells” value on LXR-alpha [4] came to 3 fold. Further, in the experiment on ABCG1 [5], the “ABCG1 expression higher than in vehicle-treated controls” value is listed as around 10 times. The “FASN expression higher than in vehicle (DMSO) treated controls” value in [6] is listed as 3.7 times. Also, in the experiment on ABCG1 [7], the “ABCG1 expression higher than in vehicle (DMSO) treated controls” value came out at 60 times. For the same molecule, in the experiment on TNF-alpha (24 h after UV), the “TNF-alpha expression versus Comp I-treated cells” value was “significantly higher”. For the same molecule, in the experiment with TNF-alpha (24 h after UV (254 nm, 15 J/m^2), normalized to GAPDH), the “TNF-alpha expression versus DMSO-treated cells” value is “significantly lower”. In addition, the “IL-8 expression versus DMSO-treated cells” value in the experiment on IL-8 is reported as “significantly lower”. Further, the LXR-alpha expression entry with LXR-alpha [8] was “higher in HaCaT incubated in the presence of DMSO compared with non-irradiated cells and GW3965-treated cells”. Further, in the experiment on ABCA1 [9], the “ABCA1 expression higher than in vehicle-treated controls” value is given as around 3 times. Moreover, the “SRBEP-1 expression higher than in vehicle (DMSO) treated controls” value with SRBEP-1 is 4.6 times.
